# Laboratory results published in ChEMBL document CHEMBL1201862, “PubChem BioAssay data set” (2004).
#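 Test compounds were applied to cells in 96-well plates for 48 hours at 5 doses. GI50 is the concentration that inhibits growth by half.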 Activity calls are given as the source filed them. Rule as the data show it: active = GI50 up to about 1.1 µM and inactive = higher.
# Columns and labels:
# Assay in all cases: NCI anticancer screen, dose series, 48 h
# OVCAR-4 = system: OVCAR-4
# A498 = system: A498
# Malme-3M = system: Malme-3M
# MCF7 = system: MCF7
# ACHN = system: ACHN
# IGROV-1 = system: IGROV-1
# UO-31 = system: UO-31
# DU-145 = system: DU-145
# TK-10 = system: TK-10
# SF-539 = system: SF-539
# NCI-H522 = system: NCI-H522
# MOLT-4 = system: MOLT-4
# COLO 205 = system: COLO 205
# SW-620 = system: SW-620
# T47D = system: T47D
# OVCAR-3 = system: OVCAR-3
# BT-549 = system: BT-549
# SF-268 = system: SF-268
# HCC 2998 = system: HCC 2998
# LOX IMVI = system: LOX IMVI
# UACC-257 = system: UACC-257
# Hs-578T = system: Hs-578T
# SN12C = system: SN12C
# NCI-H460 = system: NCI-H460
# U-251 = system: U-251
# NCI-H226 = system: NCI-H226
# SK-OV-3 = system: SK-OV-3
# HCT-15 = system: HCT-15
# SNB-75 = system: SNB-75
# SK-MEL-28 = system: SK-MEL-28
# SK-MEL-5 = system: SK-MEL-5
# EKVX = system: EKVX
# SR = system: SR
# 786-0 = system: 786-0
# MDA-MB-435 = system: MDA-MB-435
# KM12 = system: KM12
# HOP-92 = system: HOP-92
# RPMI-8226 = system: RPMI-8226
# SF-295 = system: SF-295
# UACC-62 = system: UACC-62
# MDA-MB-231 = system: MDA-MB-231
# K562 = system: K562
# A549 = system: A549
# M14 = system: M14
# NCI-H23 = system: NCI-H23
# HOP-62 = system: HOP-62
# SK-MEL-2 = system: SK-MEL-2
# CCRF-CEM = system: CCRF-CEM
# SNB-19 = system: SNB-19
# HCT-116 = system: HCT-116
# CAKI-1 = system: CAKI-1
# OVCAR-8 = system: OVCAR-8
# PC-3 = system: PC-3
# NCI/ADR-RES = system: NCI/ADR-RES
# OVCAR-5 = system: OVCAR-5
# MDA-N = system: MDA-N
# HT-29 = system: HT-29
# RXF 393 = system: RXF 393
# HL-60 = system: HL-60
smiles,measurement,setting,value
COC(=O)C(COC(C)=O)NC(=O)/C=C/c1ccc(O)c(OC(C)=O)c1 (stereo not given),GI50,OVCAR-4,70.8 µM (inactive)
same,GI50,A498,> 100 µM (inactive)
same,GI50,Malme-3M,> 100 µM (inactive)
same,GI50,MCF7,> 100 µM (inactive)
same,GI50,ACHN,74 µM (inactive)
same,GI50,IGROV-1,31.6 µM (inactive)
same,GI50,UO-31,49.2 µM (inactive)
same,GI50,DU-145,58.6 µM (inactive)
same,GI50,TK-10,77.4 µM (inactive)
same,GI50,SF-539,15.1 µM (inactive)
same,GI50,NCI-H522,11.4 µM (inactive)
same,GI50,MOLT-4,13.6 µM (inactive)
same,GI50,COLO 205,> 100 µM (inactive)
same,GI50,SW-620,31 µM (inactive)
same,GI50,T47D,31.2 µM (inactive)
same,GI50,OVCAR-3,50.6 µM (inactive)
same,GI50,BT-549,> 100 µM (inactive)
same,GI50,SF-268,> 100 µM (inactive)
same,GI50,HCC 2998,63.4 µM (inactive)
same,GI50,LOX IMVI,44.6 µM (inactive)
same,GI50,UACC-257,> 100 µM (inactive)
same,GI50,Hs-578T,> 100 µM (inactive)
same,GI50,SN12C,> 100 µM (inactive)
same,GI50,NCI-H460,60.3 µM (inactive)
same,GI50,U-251,37 µM (inactive)
same,GI50,NCI-H226,> 100 µM (inactive)
same,GI50,SK-OV-3,> 100 µM (inactive)
same,GI50,HCT-15,8.97 µM
same,GI50,SNB-75,> 100 µM (inactive)
same,GI50,SK-MEL-28,66.2 µM (inactive)
same,GI50,SK-MEL-5,> 100 µM (inactive)
same,GI50,EKVX,> 100 µM (inactive)
same,GI50,SR,5.81 µM (inactive)
same,GI50,786-0,55.8 µM (inactive)
same,GI50,MDA-MB-435,> 100 µM (inactive)
same,GI50,KM12,67.1 µM (inactive)
same,GI50,HOP-92,83.4 µM (inactive)
same,GI50,RPMI-8226,29.6 µM (inactive)
same,GI50,SF-295,> 100 µM (inactive)
same,GI50,UACC-62,> 100 µM (inactive)
same,GI50,MDA-MB-231,30.1 µM (inactive)
same,GI50,K562,44.6 µM (inactive)
same,GI50,A549,> 100 µM (inactive)
same,GI50,M14,> 100 µM (inactive)
same,GI50,NCI-H23,> 100 µM (inactive)
same,GI50,HOP-62,49.3 µM (inactive)
same,GI50,SK-MEL-2,> 100 µM (inactive)
same,GI50,CCRF-CEM,17.4 µM (inactive)
same,GI50,SNB-19,> 100 µM (inactive)
same,GI50,HCT-116,39.1 µM (inactive)
same,GI50,CAKI-1,66.2 µM (inactive)
same,GI50,OVCAR-8,58.1 µM (inactive)
same,GI50,PC-3,99.1 µM (inactive)
same,GI50,NCI/ADR-RES,75.3 µM (inactive)
same,GI50,OVCAR-5,> 100 µM (inactive)
same,GI50,MDA-N,> 100 µM (inactive)
same,GI50,HT-29,78.2 µM (inactive)
CN(C)c1ccc(/C=C/c2ccc3ccccc3[n+]2C)cc1,GI50,A498,20.1 µM (inactive)
same,GI50,RXF 393,2.81 µM (inactive)
same,GI50,Malme-3M,4.53 µM (inactive)
same,GI50,MCF7,1.64 µM (inactive)
same,GI50,ACHN,5.62 µM (inactive)
same,GI50,IGROV-1,3.54 µM (inactive)
same,GI50,UO-31,2.07 µM (inactive)
same,GI50,DU-145,1.67 µM (inactive)
same,GI50,TK-10,5.16 µM (inactive)
same,GI50,SF-539,5.24 µM (inactive)
same,GI50,MOLT-4,1.47 µM (inactive)
same,GI50,SW-620,2.12 µM (inactive)
same,GI50,T47D,1.63 µM (inactive)
same,GI50,OVCAR-3,2.97 µM (inactive)
same,GI50,BT-549,1.2 µM (inactive)
same,GI50,SF-268,4.45 µM (inactive)
same,GI50,HCC 2998,4.13 µM (inactive)
same,GI50,Hs-578T,20.4 µM (inactive)
same,GI50,SN12C,2.96 µM (inactive)
same,GI50,NCI-H460,3.64 µM (inactive)
same,GI50,U-251,2.38 µM (inactive)
same,GI50,NCI-H226,3.13 µM (inactive)
same,GI50,SK-OV-3,5.73 µM (inactive)
same,GI50,HCT-15,6.65 µM
same,GI50,SK-MEL-28,3.87 µM (inactive)
same,GI50,SK-MEL-5,3.06 µM (inactive)
same,GI50,EKVX,1.62 µM (inactive)
same,GI50,SR,1.77 µM (inactive)
same,GI50,786-0,6.76 µM (inactive)
same,GI50,MDA-MB-435,4.21 µM (inactive)
same,GI50,KM12,3.42 µM (inactive)
same,GI50,HOP-92,1.99 µM (inactive)
same,GI50,SF-295,2.95 µM (inactive)
same,GI50,UACC-62,3.62 µM (inactive)
same,GI50,MDA-MB-231,3.28 µM (inactive)
same,GI50,K562,0.891 µM (active)
same,GI50,A549,3.13 µM (inactive)
same,GI50,HL-60,1.34 µM (inactive)
same,GI50,M14,4.12 µM (inactive)
same,GI50,NCI-H23,1.48 µM (inactive)
same,GI50,HOP-62,7.13 µM (inactive)
same,GI50,SK-MEL-2,1.48 µM (inactive)
same,GI50,CCRF-CEM,1.66 µM (inactive)
same,GI50,SNB-19,4.31 µM (inactive)
same,GI50,HCT-116,1.81 µM (inactive)
same,GI50,OVCAR-8,1.39 µM (inactive)
same,GI50,PC-3,1.57 µM (inactive)
same,GI50,NCI/ADR-RES,> 100 µM (inactive)
same,GI50,OVCAR-5,7.01 µM (inactive)
same,GI50,MDA-N,2.03 µM (inactive)
same,GI50,HT-29,3.37 µM (inactive)
CCOC(=O)C(NC(=O)CC)(Nc1ccc(S(=O)(=O)Nc2onc(C)c2C)cc1)C(F)(F)F (stereo not given),GI50,OVCAR-4,> 100 µM (inactive)
same,GI50,RXF 393,> 100 µM (inactive)
same,GI50,Malme-3M,> 100 µM (inactive)
same,GI50,MCF7,> 100 µM (inactive)
same,GI50,ACHN,> 100 µM (inactive)
same,GI50,IGROV-1,> 100 µM (inactive)
same,GI50,UO-31,> 100 µM (inactive)
same,GI50,DU-145,> 100 µM (inactive)
same,GI50,SF-539,> 100 µM (inactive)
same,GI50,NCI-H522,> 100 µM (inactive)
same,GI50,MOLT-4,> 100 µM (inactive)
same,GI50,COLO 205,> 100 µM (inactive)
same,GI50,SW-620,> 100 µM (inactive)
same,GI50,T47D,> 100 µM (inactive)
same,GI50,OVCAR-3,> 100 µM (inactive)
same,GI50,BT-549,> 100 µM (inactive)
same,GI50,SF-268,> 100 µM (inactive)
same,GI50,HCC 2998,> 100 µM (inactive)
same,GI50,LOX IMVI,> 100 µM (inactive)
same,GI50,UACC-257,> 100 µM (inactive)
same,GI50,Hs-578T,> 100 µM (inactive)
same,GI50,SN12C,> 100 µM (inactive)
same,GI50,NCI-H460,> 100 µM (inactive)
same,GI50,U-251,> 100 µM (inactive)
same,GI50,NCI-H226,> 100 µM (inactive)
same,GI50,SK-OV-3,> 100 µM (inactive)
same,GI50,HCT-15,> 100 µM
same,GI50,SNB-75,14.9 µM (inactive)
same,GI50,SK-MEL-28,> 100 µM (inactive)
same,GI50,SK-MEL-5,> 100 µM (inactive)
same,GI50,EKVX,> 100 µM (inactive)
same,GI50,SR,> 100 µM (inactive)
same,GI50,786-0,> 100 µM (inactive)
same,GI50,MDA-MB-435,> 100 µM (inactive)
same,GI50,KM12,> 100 µM (inactive)
same,GI50,HOP-92,> 100 µM (inactive)
same,GI50,RPMI-8226,> 100 µM (inactive)
same,GI50,SF-295,> 100 µM (inactive)
same,GI50,UACC-62,> 100 µM (inactive)
same,GI50,MDA-MB-231,> 100 µM (inactive)
same,GI50,K562,> 100 µM (inactive)
same,GI50,A549,> 100 µM (inactive)
same,GI50,HL-60,> 100 µM (inactive)
same,GI50,M14,> 100 µM (inactive)
same,GI50,NCI-H23,> 100 µM (inactive)
same,GI50,HOP-62,> 100 µM (inactive)
same,GI50,SK-MEL-2,> 100 µM (inactive)
same,GI50,CCRF-CEM,> 100 µM (inactive)
same,GI50,SNB-19,> 100 µM (inactive)
same,GI50,HCT-116,> 100 µM (inactive)
same,GI50,CAKI-1,> 100 µM (inactive)
same,GI50,OVCAR-8,> 100 µM (inactive)
same,GI50,PC-3,> 100 µM (inactive)
same,GI50,NCI/ADR-RES,> 100 µM (inactive)
same,GI50,OVCAR-5,> 100 µM (inactive)
same,GI50,MDA-N,> 100 µM (inactive)
same,GI50,HT-29,> 100 µM (inactive)
